Experimental data from BindingDB's records for doi:10.1016/j.bmcl.2015.03.051 (Mayo Clinic, 2015).

How the values were obtained:
[1] = target: T1, Cholecystokinin receptor type A (Homo sapiens, UniProt P32238)
T1 sequence (P32238 whole entry): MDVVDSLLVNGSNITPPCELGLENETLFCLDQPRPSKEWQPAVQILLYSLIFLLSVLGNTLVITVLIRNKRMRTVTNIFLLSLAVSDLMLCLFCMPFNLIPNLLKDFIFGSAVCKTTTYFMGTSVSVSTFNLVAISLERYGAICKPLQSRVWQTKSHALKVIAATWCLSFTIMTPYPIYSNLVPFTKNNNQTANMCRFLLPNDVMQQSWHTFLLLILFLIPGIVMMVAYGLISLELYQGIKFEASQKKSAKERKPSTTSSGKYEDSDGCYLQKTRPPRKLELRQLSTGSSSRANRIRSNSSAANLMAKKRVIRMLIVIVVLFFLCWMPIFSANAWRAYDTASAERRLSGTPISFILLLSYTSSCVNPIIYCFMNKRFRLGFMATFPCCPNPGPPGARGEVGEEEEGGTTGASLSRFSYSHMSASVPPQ

[2] = target: T1, Cholecystokinin receptor type A; remark: listed apart in the source
[3] = target: T1, Cholecystokinin receptor type A; assay: Activity at CCK1R (unknown origin) expressed in CHO cells assessed as CCK EC50 measured as intracellular calcium responses at 1000 nM (Rvb = 7 to 14 pM)
[4] = target: T1, Cholecystokinin receptor type A; assay: Activity at CCK1R (unknown origin) expressed in CHO cells assessed as CCK EC50 measured as intracellular calcium responses at 100 nM (Rvb = 7 to 14 pM)

SMILES	IC50 [1] [nM]	IC50 [2] [nM]	EC50 [3] [nM]	EC50 [4] [nM]
COc1ccc(N(C)C(=O)CN2C(=O)C(NC(=O)Nc3ccccc3)C(=O)N(c3ccccc3)c3ccccc32)cc1 (stereo unspecified) [2-[2,4-Dioxo-5-phenyl-3-(3-phenyl-ureido)-2,3,4,5-tetrahydro-benzo[b][1,4]diazepin-1-yl]-N-(4-methoxy-phenyl)-N-methyl-acetamide]	25	14	0.120	0.051
O=C(CN1C(=O)C(NC(=O)Nc2ccccc2)C(=O)N(c2ccccc2)c2ccccc21)Nc1ccccc1 (stereo unspecified)	–	–	0.039	0.014
